Reference: patent publication US20070117770A1, “Human ribosomal DNA (rDNA) and ribosomal RNA (rRNA) nucleic acids and uses thereof” (Cylene Pharmaceuticals, Inc., priority 2005, published 2007)
Entries after “also recorded” stand apart in the source; their conditions may differ.

Columns and labels:
nucleolin/6534NT = target: T1, nucleolin/6534NT (Homo sapiens, UniProt P19338); assay: EMSA, interference with nucleolin/nucleic acid ligand interaction; format: binding; conditions: ligand 6534NT, read-out: IC50, concentration of Compound A-1 required to dissociate half of the complexed nucleic acid ligand and nucleolin protein
T1 construct: without the N-terminal acidic stretches domain
Description: (§1) The following assays assessed effects of compounds on interactions between nucleolin and nucleic acid ligands capable of forming quadruplex (QP) and hairpin (HP) secondary structures. Nucleic acid ligands tested were a cMyc QP DNA having nucleotide sequence 5′-[…]-3′ (SEQ ID NO: 176) and a HP pre-rRNA region to which nucleolin binds, having the sequence 5′-[…]-3′ (SEQ ID NO: 177). In the assays, recombinant nucleolin (˜250 nM), which was fused to maltose binding protein and had the sequence under accession number NM_005381 without the N-terminal acidic stretches domain, was incubated with each of the two ^32P-labeled nucleic acid ligands (10 or 250 nM). Nucleolin and the nucleic acid ligand were incubated in the presence or absence of a test compound of Formula A-1, B-1, C-6 or C-7 in an incubation buffer (12.5 mM Tris, pH 7.6, 60 mM KCl, 1 mM MgCl2, 0.1 mM EDTA, 1 mM DTT, 5% glycerol, 0.1 mg/ml BSA) for 30 minutes at room temperature. Structures for A-1 and B-1 are shown above and structures for C-6 and C-7 are shown hereafter: [drawing 17] The resulting complexes were separated on a 6% DNA retardation gel using 0.5× TBE with 20 mM KCl as a running buffer (i.e., electrophoresis mobility shift assay (EMSA)).
(§2) The assay also was conducted using nucleic acid ligands derived from human ribosomal DNA. Sequences of these nucleic acids are shown in the preceding example. […] A “+” represents the weakest nucleolin affinity and least interference by compound A-1 and a “++++” represents the strongest nucleolin affinity and greatest interference by compound A-1.
(§3) The assay also was conducted in a filter-binding format. […] The protein-quadruplex mixtures were incubated for 30 min at ambient temperature and filtered through mixed cellulose ester membrane filters (Millipore) with gentle suction. The filters were washed twice with […] of binding buffer, dried and OptiPhase ‘SuperMix’ scintillation cocktail (Perkin Elmer) was added to the wells. Radioactivity was assayed with MicroBeta scintillation counter (Perkin Elmer). Binding curves were constructed and apparent Kd's and Bmax's for the complexes were calculated using the GraphPad Prizm software program (GraphPad Software). In the following table, the nucleic acid ligand is designated in the first column using the nomenclature described herein; the second column provides the nucleotide sequence of the nucleic acid ligand; the third column is the conformation of the ligand as determined by circular dichroism (M is mixed, P is parallel, A is antiparallel, C is complex, SS is single-stranded and ND is not determined); the fourth column is the dissociation constant determined by the filter binding assay of nucleolin protein and the nucleic acid ligand; the fifth column is a Bmax constant determined by the filter binding assay, which is the percent of active nucleic acid ligand in each assay; and the sixth column presents the concentration of Compound A-1 required to dissociate half of the complexed nucleic acid ligand and nucleolin protein, as determined by the EMSA assay described above.

nucleolin/2957NT = target: T2, nucleolin/2957NT (Homo sapiens, UniProt P19338); assay: as above; format: binding; conditions: ligand 2957NT, read-out: IC50, concentration of Compound A-1 required to dissociate half of the complexed nucleic acid ligand and nucleolin protein
T2 construct: without the N-terminal acidic stretches domain
Description: as §1, §2, §3

nucleolin/6960NT = target: T3, nucleolin/6960NT (Homo sapiens, UniProt P19338); assay: as above; format: binding; conditions: ligand 6960NT, read-out: IC50, concentration of Compound A-1 required to dissociate half of the complexed nucleic acid ligand and nucleolin protein
T3 construct: without the N-terminal acidic stretches domain
Description: as §1, §2, §3

nucleolin/7253NT = target: T4, nucleolin/7253NT (Homo sapiens, UniProt P19338); assay: as above; format: binding; conditions: ligand 7253NT, read-out: IC50, concentration of Compound A-1 required to dissociate half of the complexed nucleic acid ligand and nucleolin protein
T4 construct: without the N-terminal acidic stretches domain
Description: as §1, §2, §3

nucleolin/8511NT = target: T5, nucleolin/8511NT (Homo sapiens, UniProt P19338); assay: as above; format: binding; conditions: ligand 8511NT, read-out: IC50, concentration of Compound A-1 required to dissociate half of the complexed nucleic acid ligand and nucleolin protein
T5 construct: without the N-terminal acidic stretches domain
Description: as §1, §2, §3

nucleolin/8762NT = target: T6, nucleolin/8762NT (Homo sapiens, UniProt P19338); assay: as above; format: binding; conditions: ligand 8762NT, read-out: IC50, concentration of Compound A-1 required to dissociate half of the complexed nucleic acid ligand and nucleolin protein
T6 construct: without the N-terminal acidic stretches domain
Description: as §1, §2, §3

nucleolin/6374NT = target: T7, nucleolin/6374NT (Homo sapiens, UniProt P19338); assay: as above; format: binding; conditions: ligand 6374NT, read-out: IC50, concentration of Compound A-1 required to dissociate half of the complexed nucleic acid ligand and nucleolin protein
T7 construct: without the N-terminal acidic stretches domain
Description: as §1, §2, §3

nucleolin/5701NT = target: T8, nucleolin/5701NT (Homo sapiens, UniProt P19338); assay: as above; format: binding; conditions: ligand 5701NT, read-out: IC50, concentration of Compound A-1 required to dissociate half of the complexed nucleic acid ligand and nucleolin protein
T8 construct: without the N-terminal acidic stretches domain
Description: as §1, §2, §3

[1] = test system: 28S rRNA and 18S rRNA (total RNA from HCT116 cells); assay: Human rRNA interaction screening assay (agarose gel electrophoresis mobility shift); format: binding; conditions: 1 ug total RNA; 10 uM compound or 0.5 ug/mL PI, 15 min, room temperature
Description: RNA was isolated from HCT116 cells (RNeasy kit, QIAGEN) and contacted in vitro with each compound from a library of compounds. In representative assays, 1 ug of total RNA from HCT116 cells was incubated with 0.5 ug/mL of propidium iodide (PI), 10 uM compound A-1 or another compound in the library in a volume of 10 uL for 15 min at room temperature, followed by agarose gel electrophoresis. Fluorescence of the compounds was visualized on each gel. […] Compounds C-1, C-2, C-3, C-4 and C-5 have the following general formula: [drawing 15] [drawing 16]

nucleolin/8749NT = target: T9, nucleolin/8749NT (Homo sapiens, UniProt P19338); assay: EMSA, interference with nucleolin/nucleic acid ligand interaction; format: binding; design: key to Activity of Compound A-1 (relative interference), ligand 8749NT: +: least interference by compound A-1; ++++: greatest interference by compound A-1
T9 construct: without the N-terminal acidic stretches domain
Description: as §1, with “The resulting complexes were separated on a 6% DNA retardation gel using 0.5× TBE with 20 mM KCl as a running buffer (i.e., electrophoresis mobility shift assay (EMSA)).” left out
The assay also was conducted in a filter-binding format. […] Radioactivity was assayed with MicroBeta scintillation counter (Perkin Elmer). Binding curves were constructed and apparent Kd's and Bmax's for the complexes were calculated using the GraphPad Prizm software program (GraphPad Software). […]

[2] = target: T10, nucleolin/nucleic acid ligand (Homo sapiens, UniProt P19338); assay: EMSA, interference with nucleolin/nucleic acid ligand interactions (ligands derived from human ribosomal DNA); format: binding
T10 construct: without the N-terminal acidic stretches domain
Description: as §1
The assay also was conducted using nucleic acid ligands derived from human ribosomal DNA. Sequences of these nucleic acids are shown in the preceding example. […]

[3] = test system: mixed-parallel quadruplex structure; conditions: cited from earlier work

T9 sequence (P19338 284-710 limits assumed): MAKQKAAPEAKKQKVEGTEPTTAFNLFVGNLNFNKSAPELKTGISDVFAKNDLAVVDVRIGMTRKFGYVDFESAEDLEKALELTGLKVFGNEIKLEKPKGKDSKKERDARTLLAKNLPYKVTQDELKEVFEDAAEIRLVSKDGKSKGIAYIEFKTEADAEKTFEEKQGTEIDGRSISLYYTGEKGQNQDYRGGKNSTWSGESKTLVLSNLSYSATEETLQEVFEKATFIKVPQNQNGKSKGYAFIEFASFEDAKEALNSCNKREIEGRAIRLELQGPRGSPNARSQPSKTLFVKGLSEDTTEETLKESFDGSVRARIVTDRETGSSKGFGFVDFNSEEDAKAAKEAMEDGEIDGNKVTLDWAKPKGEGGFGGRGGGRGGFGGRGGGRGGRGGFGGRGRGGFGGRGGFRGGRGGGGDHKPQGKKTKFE
T1 sequence (P19338 284-710 limits assumed): as above
T5 sequence (P19338 284-710 limits assumed): as above
T7 sequence (P19338 284-710 limits assumed): as above
T3 sequence (P19338 284-710 limits assumed): as above
T2 sequence (P19338 284-710 limits assumed): as above
T6 sequence (P19338 284-710 limits assumed): as above
T4 sequence (P19338 284-710 limits assumed): as above
T10 sequence (P19338 284-710 limits assumed): as above
T8 sequence (P19338 284-710 limits assumed): as above

- IC50 (nucleolin/6534NT): 10 µM
- IC50 (nucleolin/2957NT): 1 µM
- IC50 (nucleolin/6960NT): 3 µM
- IC50 (nucleolin/7253NT): 10 µM
- IC50 (nucleolin/8511NT): 10 µM
- IC50 (nucleolin/8762NT): 10 µM
- IC50 (nucleolin/6374NT): 3 µM
- IC50 (nucleolin/5701NT): 3 µM
- Activity of Compound A-1 (relative interference), ligand 8749NT (nucleolin/8749NT): +
- IC50 (nucleolin/8749NT; ligand 8749NT, read-out: IC50, concentration of Compound A-1 required to dissociate half of the complexed nucleic acid ligand and nucleolin protein): 10 µM
Compound: CN1CCCC1CCNC(=O)c1cn2c3c(c(N4CCC(c5cnccn5)C4)c(F)cc3c1=O)Oc1cc3ccccc3cc1-2 (stereo not shown) [Compound A-1]
- binding to 28S versus 18S rRNA [1]: bound preferentially to 28S rRNA; also recorded: selective binding to 28S over 18S
- interference with nucleolin/nucleic acid ligand interactions [2]: interfered with nucleolin/nucleic acid ligand interactions
- preferred quadruplex structure in competition assays [3]: interact preferentially with a mixed-parallel quadruplex structure
